# In US8815875B2 (Merck Sharp & Dohme Corp., priority 2008, dated 2014):
# Key:
# FABP4 = FABP4 (Homo sapiens, UniProt P15090); experiment: TdF (Temperature Dependence Fluorescence) assay, thermal shift, FABP4; type: binding
# Summary of the method: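 Binding measured as ΔTm versus protein alone; binding constants derived by nonlinear fitting with ΔHL set to −7 kcal/mol and ΔCpL to zero.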
# FABP5 = FABP5 (Homo sapiens, UniProt Q01469); experiment: TdCD (Temperature-dependent Circular Dichroism) assay, FABP5; type: binding; settings: T=20° C.; compounds tested at 50 μM and 25 μM
# Text: [formula] (see Brandts et al and Mayhood et al, shown above) where ΔHL (T) is the van't Hoff enthalpy of ligand binding at temperature T and ΔCpL is the heat capacity upon ligand binding. For simplicity, the ΔCpL and ΔHL (T) were set to zero and −7 kcal/mol respectively. […] TdCD (Temperature-dependent Circular Dichroism) Assay for FABP3/4/5
# JASCO 810 spectropolarimeter was used to measure Circular Dichroism (CD) spectra and temperature-dependent protein unfolding profiles. The instrument is equipped with a 6-cell piezoelectric temperature controller. Ellipticity was monitored at 226 nm as a function of temperature with a 1 mm path length cell. The scan rate was 1° C./min with a 4 s response time and 30 s equilibration between measurements.
# 10 mM stocks of individual compounds were made in 100% DMSO. […] DMSO was added to protein-alone (apo) samples to 1% to compensate for DMSO amounts in protein+ligand samples.
# Briefly, the To (midpoint of unfolding for the unliganded protein) was calculated from best fit of the unfolding data to the equation below:
# [formula] Where, Yobs is the observed ellipticity value at any temperature T, Yn and Yu are the predicted ellipticity values for fully folded and unfolded species, respectively, mn and mu are slope correction for changes in Yn and Yu with respect to changes in temperature. T0 is the midpoint temperature at which the unliganded protein unfolds and ΔHu and ΔCpu are the heat of unfolding and heat capacity of unfolding, respectively for the unliganded species.
# In presence of ligand, the midpoint temperature (Tm) defines where the equilibrium concentrations of unfolded and folded species are equal. Incorporation of the unliganded free energy of binding and subsequent thermodynamic substitution yielded the binding constant of the ligand at the Tm value of unfolding:
# [formula] where, T0 is the midpoint of unfolding for unliganded protein and Tm is the midpoint of unfolding in presence of ligand. [LTm] is free ligand at Tm.
# Based on estimates for enthalpy of binding, ΔHL (estimated to be −7 kcal/mol) and ligand binding heat capacity ΔCpL (set to be zero), the ligand binding association constant (KL) at temperature T=20° C. were calculated as below.
# Sequence of FABP5 (Q01469 whole entry, species assumed): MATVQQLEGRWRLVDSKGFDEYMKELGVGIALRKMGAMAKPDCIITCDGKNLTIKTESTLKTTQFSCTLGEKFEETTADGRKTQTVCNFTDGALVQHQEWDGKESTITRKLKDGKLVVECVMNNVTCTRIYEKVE
# Sequence of FABP4 (P15090 whole entry, species assumed): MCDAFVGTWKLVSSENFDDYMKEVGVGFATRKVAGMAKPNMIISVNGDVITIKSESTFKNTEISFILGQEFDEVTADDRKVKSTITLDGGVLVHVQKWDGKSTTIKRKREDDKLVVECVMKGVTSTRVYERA
SMILES,FABP4 TdF Kd (FABP4),Kd (FABP5) [nM],Kd (FABP4) [nM]
O=c1cc(COc2csc(C(F)(F)F)c2)[nH]c2nc(-c3ccccc3)nn12 [1-5],B (0.5 ≦ B < 0.001 μM),< 500,
O=c1cc(CN2CCc3c(Br)cccc32)[nH]c2nc(-c3ccccc3)nn12 [1-17],B (0.5 ≦ B < 0.001 μM),> 500,
CC1(C)CCCC(OCc2cc(=O)n3nc(-c4ccccc4)nc3[nH]2)C1 (centres unmarked) [1-152],B (0.5 ≦ B < 0.001 μM),< 500,
O=c1cc(CN2CCc3c(Cl)cccc32)[nH]c2nc(-c3ccccc3)nn12 [6-3],B (0.5 ≦ B < 0.001 μM),> 500,
Cc1c(Cl)cccc1N(C)Cc1cc(=O)n2nc(-c3ccccc3)nc2[nH]1 [6-4],B (0.5 ≦ B < 0.001 μM),> 500,
O=c1cc(COc2cccc(Cl)c2C2CC2)[nH]c2nc(-c3ccccc3)nn12 [20-2],B (0.5 ≦ B < 0.001 μM),< 500,
O=c1c(Cl)c(COc2cccc(Cl)c2C2CC2)[nH]c2nc(-c3ccccc3)nn12 [24-1],,< 500,
O=c1cc(COc2cccc(Cl)c2C2CCC2)[nH]c2nc(-c3ccccc3)nn12 [26-3],B (0.5 ≦ B < 0.001 μM),< 500,
CN(C(=O)C1(OCc2[nH]c3nc(-c4ccccc4)nn3c(=O)c2Cl)CCCCC1)C1CCCCC1 [50-4],B (0.5 ≦ B < 0.001 μM),,

# More lines, now with the values ahead:
FABP4 TdF Kd (FABP4),Kd (FABP5) [nM],Kd (FABP4) [nM],SMILES
,,≤ 1,O=C(NCC1(CO)CCCC1)C1(OCc2[nH]c3nc(-c4ccccc4)nn3c(=O)c2Cl)CCCCC1 [50-5]
B (0.5 ≦ B < 0.001 μM),,,O=C(NCC1(CO)CCC1)C1(OCc2[nH]c3nc(-c4ccccc4)nn3c(=O)c2Cl)CCCCC1 [50-6]
,,> 500,O=c1nc(SCc2cccc(Cl)c2Cl)[nH]c2nc(-c3ccccc3)nn12 [51-4]
,,≤ 1,O=c1cc(CSc2cccc(Cl)c2C2CC2)[nH]c2nc(-c3ccccc3)nn12 [52-4]
,,≤ 1,O=c1cc(CSc2cccc(Cl)c2C2CCC2)[nH]c2nc(-c3ccccc3)nn12 [52-5]
,,> 500,O=C(O)c1c(Cl)cccc1OCc1cc(=O)n2nc(C(F)(F)F)nc2[nH]1 [53-3]
,,> 500,O=C(O)C1(OCc2cc(=O)n3nc(C(F)(F)F)nc3[nH]2)CCCCC1 [54-1]
